Data set [1] deals with intestinal resorption of cholesterol. The data set is described as follows: inhibition of the intestinal resorption of cholesterol in squirrel monkeys (CHORES). The data set is classed as in vivo. The following applies: 100 μmol/kg p.o., [26-^14 C]-cholesterol in feed, faeces collected 2.5 days, % of control values determined prior to medication. The text has this: Squirrel monkeys are orally administered the substances to be investigated together with a feed containing a protein, starch, triolein and [26-^14 C]-cholesterol. Thereupon, the faeces is collected for 2.5 days. The difference between the administered and the excreted radioactive cholesterol determined in the faeces is taken as the measurement of resorbed cholesterol. The cholesterol resorption (CHORES) is expressed in percentages of the control values determined prior to the medication.
(§1) The results which have been obtained with some representative products in accordance with the invention are reproduced in the Table hereinafter. There are given for each of the compounds indicated therein the dosage administered (in μmol/kg p.o.) as well as in each case the cholesterol resorption (CHORES) determined in percentages of the cholesterol resorption in the pre-period. Moreover, the Table contains data concerning the acute toxicity of the compounds investigated (LD50 in mg/kg in the case of single oral administration to mice).

A short description of data set [2]: acute toxicity, single oral administration to mice. The following applies: mouse, in vivo; single oral administration (p.o.) to mice.
Source text: as §1

This note sets out measurements from patent US4680290A, “Steroids for the treatment of hypercholesterolemia” (Hoffmann-La Roche Inc., priority 1983, dated 1987).

With `CC(C)CCC[C@@H](C)[C@H]1CC[C@H]2[C@@H]3CC[C@H]4C[C@@H](OP(=O)([O-])OCC[N+](C)(C)C)CC[C@]4(C)[C@H]3CC[C@]12C` [3β-Cholestanyloxy-phosphorylcholine], the “CHORES in % of the pre-period (cholesterol resorption)” value (shortened to “CHORES in % of the pre-period”) in data set [1] came to 26%. In data set [2], this molecule gave an LD50 of 5000 mg/kg.

In the case of `CC[C@H](CC[C@@H](C)[C@H]1CC[C@H]2[C@@H]3CC[C@H]4C[C@@H](OP(=O)([O-])OCC[N+](C)(C)C)CC[C@]4(C)[C@H]3CC[C@]12C)C(C)C` [3β-Stigmastanyloxy-phosphorylcholine, 3β-stigmastanyloxy-phosphorylcholine], in data set [1], the “CHORES in % of the pre-period” value was 36%. In data set [2], this molecule returned an LD50 of 4000 mg/kg.

For `CC[C@H](CC[C@@H](C)[C@H]1CC[C@H]2[C@@H]3CC=C4C[C@@H](OP(=O)([O-])OCC[N+](C)(C)C)CC[C@]4(C)[C@H]3CC[C@]12C)C(C)C` [Stigmast-5-en-3β-yloxy-phosphorylcholine], the “CHORES in % of the pre-period” value in data set [1] worked out at 52%. In data set [2], this molecule yielded a 50% lethal dose (LD50) of 5000 mg/kg.

For the molecule `CC[C@H](/C=C/[C@@H](C)[C@H]1CC[C@H]2[C@@H]3CC=C4C[C@@H](OP(=O)([O-])OCC[N+](C)(C)C)CC[C@]4(C)[C@H]3CC[C@]12C)C(C)C` [Stigmasta-5,22-dien-3β-yloxy-phosphorylcholine], the “CHORES in % of the pre-period” value in data set [1] came out at 33%. Besides, in data set [2], the LD50 turned out to be 5000 mg/kg.

As usually defined, the LD50 is the dose at which mortality reaches 50%. A high value points to a less toxic substance.
